Test results taken from the NIST ThermoML archive (doi:10.1021/je060283w).

Assay: relative permittivity at zero frequency (dimensionless)
Settings: Parallel plate capacitor

COC [dimethyl ether]
Settings	relative permittivity at zero frequency
343.2 K, 33200 kPa, Liquid	4.84
353.1 K, 40 kPa, Gas	1.01
353.1 K, 100 kPa, Gas	1.012
353.1 K, 220 kPa, Gas	1.017
353.1 K, 480 kPa, Gas	1.03
353.1 K, 530 kPa, Gas	1.033
353.1 K, 580 kPa, Gas	1.036
353.1 K, 680 kPa, Gas	1.041
353.1 K, 780 kPa, Gas	1.047
353.1 K, 870 kPa, Gas	1.052
353.1 K, 970 kPa, Gas	1.058
353.1 K, 1070 kPa, Gas	1.064
353.1 K, 1180 kPa, Gas	1.071
353.1 K, 1270 kPa, Gas	1.078
353.1 K, 1340 kPa, Gas	1.082
353.1 K, 1440 kPa, Gas	1.09
353.1 K, 1540 kPa, Gas	1.098
353.1 K, 1700 kPa, Gas	1.109
353.1 K, 1890 kPa, Gas	1.128
353.1 K, 2150 kPa, Gas	1.178
353.1 K, 2200 kPa, Liquid	3.92
353.1 K, 4000 kPa, Liquid	3.98
353.1 K, 6400 kPa, Liquid	4.07
353.1 K, 8200 kPa, Liquid	4.13
353.1 K, 10200 kPa, Liquid	4.19
353.1 K, 12200 kPa, Liquid	4.24
353.1 K, 14200 kPa, Liquid	4.29
353.1 K, 16100 kPa, Liquid	4.33
353.1 K, 18200 kPa, Liquid	4.38
353.1 K, 20000 kPa, Liquid	4.42
353.1 K, 21800 kPa, Liquid	4.45
353.1 K, 24000 kPa, Liquid	4.49
353.1 K, 25800 kPa, Liquid	4.52
353.1 K, 27700 kPa, Liquid	4.55
353.1 K, 29800 kPa, Liquid	4.58
363.4 K, 850 kPa, Gas	1.048
363.4 K, 1050 kPa, Gas	1.059
363.4 K, 1200 kPa, Gas	1.068
363.4 K, 1410 kPa, Gas	1.081
363.4 K, 1580 kPa, Gas	1.092
363.4 K, 1750 kPa, Gas	1.104
363.4 K, 1890 kPa, Gas	1.116
363.4 K, 2070 kPa, Gas	1.131
363.4 K, 2280 kPa, Gas	1.15
363.4 K, 2800 kPa, Liquid	3.63
363.4 K, 4200 kPa, Liquid	3.71
363.4 K, 6200 kPa, Liquid	3.8
363.4 K, 8000 kPa, Liquid	3.88
363.4 K, 10200 kPa, Liquid	3.95
363.4 K, 12200 kPa, Liquid	4.01
363.4 K, 14200 kPa, Liquid	4.06
363.4 K, 16000 kPa, Liquid	4.11
363.4 K, 18000 kPa, Liquid	4.16
363.4 K, 20000 kPa, Liquid	4.2
363.4 K, 22000 kPa, Liquid	4.24
363.4 K, 24000 kPa, Liquid	4.28
363.4 K, 26000 kPa, Liquid	4.31
363.4 K, 28000 kPa, Liquid	4.35
363.4 K, 30500 kPa, Liquid	4.4
372.9 K, 3400 kPa, Liquid	3.38
372.9 K, 4200 kPa, Liquid	3.44
372.9 K, 6100 kPa, Liquid	3.57
372.9 K, 8300 kPa, Liquid	3.66
372.9 K, 10200 kPa, Liquid	3.73
372.9 K, 12200 kPa, Liquid	3.81
372.9 K, 14400 kPa, Liquid	3.88
372.9 K, 16200 kPa, Liquid	3.91
372.9 K, 18300 kPa, Liquid	3.96
372.9 K, 20000 kPa, Liquid	4
372.9 K, 22300 kPa, Liquid	4.05
372.9 K, 24100 kPa, Liquid	4.09
372.9 K, 26200 kPa, Liquid	4.14
372.9 K, 27800 kPa, Liquid	4.16
372.9 K, 29200 kPa, Liquid	4.18
382.9 K, 4000 kPa, Liquid	3.08
382.9 K, 6200 kPa, Liquid	3.31
382.9 K, 8100 kPa, Liquid	3.43
382.9 K, 10000 kPa, Liquid	3.53
382.9 K, 12300 kPa, Liquid	3.62
382.9 K, 14200 kPa, Liquid	3.68
382.9 K, 16100 kPa, Liquid	3.74
382.9 K, 18000 kPa, Liquid	3.79
382.9 K, 20000 kPa, Liquid	3.84
382.9 K, 22000 kPa, Liquid	3.89
382.9 K, 24000 kPa, Liquid	3.93
382.9 K, 26000 kPa, Liquid	3.97
382.9 K, 27900 kPa, Liquid	4.01
382.9 K, 30100 kPa, Liquid	4.05
393 K, 6200 kPa, Liquid	3.01
393 K, 8400 kPa, Liquid	3.21
393 K, 10000 kPa, Liquid	3.3
393 K, 12300 kPa, Liquid	3.4
393 K, 14200 kPa, Liquid	3.47
393 K, 16200 kPa, Liquid	3.54
393 K, 18200 kPa, Liquid	3.6
393 K, 20000 kPa, Liquid	3.65
393 K, 22000 kPa, Liquid	3.7
393 K, 24000 kPa, Liquid	3.75
393 K, 26000 kPa, Liquid	3.79
393 K, 27800 kPa, Liquid	3.83
393 K, 29500 kPa, Liquid	3.86
402.9 K, 6900 kPa, Fluid (supercritical or subcritical phases)	2.75
402.9 K, 8600 kPa, Fluid (supercritical or subcritical phases)	2.96
402.9 K, 10200 kPa, Fluid (supercritical or subcritical phases)	3.08
402.9 K, 12000 kPa, Fluid (supercritical or subcritical phases)	3.19
402.9 K, 14200 kPa, Fluid (supercritical or subcritical phases)	3.28
402.9 K, 16100 kPa, Fluid (supercritical or subcritical phases)	3.35
402.9 K, 18000 kPa, Fluid (supercritical or subcritical phases)	3.4
402.9 K, 20000 kPa, Fluid (supercritical or subcritical phases)	3.47
402.9 K, 21700 kPa, Fluid (supercritical or subcritical phases)	3.51
402.9 K, 23600 kPa, Fluid (supercritical or subcritical phases)	3.55
402.9 K, 25800 kPa, Fluid (supercritical or subcritical phases)	3.61
402.9 K, 27100 kPa, Fluid (supercritical or subcritical phases)	3.64
402.9 K, 29500 kPa, Fluid (supercritical or subcritical phases)	3.68
